Measured values reported in PubChem BioAssay (NCI).
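Interpolation was linear, between the two tested concentrations surrounding the appropriate level; five concentrations were tested over 48 hours in 96-well plates. The concentration for full growth arrest is given as TGI.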

Tests used:
Experiment in all cases: growth of human tumour cells (NCI), 48 h
[1] = system: EKVX NSCLC
[2] = system: MALME-3M melanoma
[3] = system: DMS 273 small cell lung
[4] = system: LXFL 529 NSCLC
[5] = system: SNB-75 CNS
[6] = system: NCI-H23 lung
[7] = system: OVCAR-3 ovarian
[8] = system: UACC-257 melanoma
[9] = system: SK-MEL-5 melanoma
[10] = system: OVCAR-5 ovarian
[11] = system: NCI-H522 lung
[12] = system: A549 NSCLC
[13] = system: SK-MEL-2 melanoma
[14] = system: CCRF-CEM leukemia
[15] = system: SNB-19 CNS
[16] = system: KM12 colon
[17] = system: K-562 leukemia
[18] = system: HL-60(TB) leukemia
[19] = system: DMS 114 small cell lung
[20] = system: HOP-18 NSCLC
[21] = system: DLD-1 colon
[22] = system: HOP-62 NSCLC
[23] = system: U251 CNS
[24] = system: UACC-62 melanoma
[25] = system: MOLT-4 leukemia
[26] = system: SN12C renal
[27] = system: COLO 205 colon
[28] = system: 786-0 renal
[29] = system: UO-31 renal
[30] = system: XF 498 CNS
[31] = system: RPMI-8226 leukemia
[32] = system: HCT-15 colon
[33] = system: SF-295 CNS
[34] = system: NCI-H460 lung
[35] = system: HCT-116 colon
[36] = system: ACHN renal
[37] = system: HOP-92 NSCLC
[38] = system: SNB-78 CNS
[39] = system: CAKI-1 renal
[40] = system: OVCAR-4 ovarian
[41] = system: RXF-631 renal
[42] = system: KM20L2 colon
[43] = system: M19-MEL melanoma
[44] = system: OVCAR-8 ovarian
[45] = system: SR leukemia
[46] = system: SF-268 CNS
[47] = system: M14 melanoma
[48] = system: NCI-H226 lung
[49] = system: TK-10 renal
[50] = system: SK-OV-3 ovarian
[51] = system: SW-620 colon
[52] = system: IGROV1 ovarian
[53] = system: A498 renal
[54] = system: HT29 colon
[55] = system: SK-MEL-28 melanoma
[56] = system: SF-539 CNS
[57] = system: HCC-2998 colon
[58] = system: RXF 393 renal
[59] = system: LOX IMVI melanoma

Measured: TGI

CCOC(=O)C(=O)Nc1c(C)cccc1C(C)C
not listed: [57] | [58] | [59]
> 100 µM: all other assays above

CCOC(=O)C(=O)Nc1c(CC)cccc1C(C)CC (centres undefined)
not listed: [28]
> 100 µM: all other assays above
